Measured values reported in patent US7709566B2, “Polytetrafluoroethylene aqueous dispersion and its product” (Asahi Glass Company, Limited, priority 2005, dated 2010).

Key:
[1] = Measurement of 1-octanol/water partition coefficient (LogPOW) by HPLC, OECD Test Guideline 117; assay type: physicochemical; conditions: for LogPOW: 1-octanol/water, HPLC, OECD Test Guideline 117, column temperature 40° C.; for bioaccumulation potential: judged from the LogPOW value, compared to APFO
Protocol: In accordance with OECD Test Guideline 117, 1-octanol/water partition coefficient (LogPOW) of a fluorinated emulsifier was measured by using HPLC (high performance liquid chromatography).
Conditions for the measurement were as follows: column: TOSOH ODS-120T column (φ 4.6 mm×250 mm), eluent: acetonitrile/0.6 mass % of HClO4 solution=1/1 (vol/vol %), flow rate: […], sample amount: 300 μL, column temperature: 40° C., and detection light: UV 210 nm (WO2005-42593).
HPLC was carried out on standard substances (heptanoic acid, octanoic acid, nonanoic acid and decanoic acid) having known 1-octanol/water partition coefficients, and a calibration curve was prepared from the respective elution times and octanol/water partition coefficients of the respective standard substances. Based on this calibration curve, a value of partition coefficient (LogPOW) between 1-octanol and water was calculated from the elution time by HPLC of the fluorinated emulsifier.
Further, in general, in order to judge whether or not a chemical substance is apt to be accumulated in a living organism, a testing method for measurement of a partition coefficient (LogPOW) between 1-octanol and water, is stipulated. As the testing method, in addition to “Partition Coefficient (1-octanol/water) Shake Flask Method” as stipulated in OECD test guideline 107 and in Japanese Industrial Standards Z 7260-107 (2000), a HPLC method (high-performance liquid chromatography) as stipulated and published in OECD Test Guideline 117, is used. A compound having a large partition coefficient value has a large tendency for bioaccumulation, and a compound having a small value means a small tendency for bioaccumulation. In a case where the LogPOW value is less than 3.5, it is considered proper to judge that it is not a high-concentration, and bioaccumulation is also considered to be small.

small animal = conditions: it has been pointed out; cited from earlier work

LogPOW [1]	Compound	bioaccumulation potential [1]	accumulation potential in a body of a small animal (small animal)
4.03	N.O=C(O)C(F)(OC(F)(F)C(F)(OC(F)(F)C(F)(F)F)C(F)(F)F)C(F)(F)F (stereo not drawn) [CF3CF2OCF(CF3)CF2OCF(CF3)COONH4]	high and higher bioaccumulation potential than APFO	
3.13	CF3CF2OCF2CF2OCF2COONH4	low	

Compound	LogPOW [1]	bioaccumulation potential [1]	accumulation potential in a body of a small animal (small animal)
N.O=C(O)C(F)(F)C(F)(F)C(F)(F)C(F)(F)C(F)(F)C(F)(F)C(F)(F)F [CF3(CF2)6COONH4, ammonium perfluorooctanoate]	3.67		has an accumulation potential
